Read-outs that look alike come from different tables or passages of the source. Each block holds one molecule with its values, some of them ahead of it.
How the values were obtained:
GRPR = target: T1, GRPR (Homo sapiens, UniProt P30550); test: Fluorometric intracellular calcium release assay using PC-3 cells; type: cell-based; conditions: 50 nM ligand, n = 4
T1 construct: host or cells: PC-3 cells
Procedure: The agonist/antagonist characteristics of LW02060, Ga-LW02060, Lu-LW02060, LW02080, Ga-LW02080, and Lu-LW02080 were determined following published procedures. The PC-3 cells were obtained from ATCC (via Cedarlane, Burlington, ON, Canada). A 96-well clear bottom black plate was seeded with 5 × 10^4 PC-3 cells in 100 μL growth media per well 24 h before the assay. The loading buffer (100 μL/well) containing a calcium-sensitive dye (FLIPR Calcium 6 assay kit from Molecular Devices, San Jose, CA, USA) was added into the 96-well plate, followed by 1 h incubation at 37 °C. The plate was then transferred into a FlexStation 3 microplate reader (Molecular Devices, San Jose, CA, USA). LW02060 (50 nM), Ga-LW02060 (50 nM), Lu-LW02060 (50 nM), LW02080 (50 nM), Ga-LW02080 (50 nM), Lu-LW02080 (50 nM), [D-Phe^6,Leu-NHEt^13,des-Met^14]Bombesin(6–14) (50 nM, antagonist control), bombesin (50 nM, agonist control), adenosine triphosphate (ATP, 50 nM, positive control), or DPBS (blank control) was added, and the fluorescent signals were measured for 2 min (λEx = 485 nm; λEm = 525 nm; n = 4). The relative fluorescent units (RFU = max − min) were calculated to determine the agonistic/antagonistic characteristics of LW02060, Ga-LW02060, Lu-LW02060, LW02080, Ga-LW02080, and Lu-LW02080, respectively.

[1] = Ex vivo biodistribution of 68Ga-labeled tracers in PC-3 tumor-bearing mice; conditions: mouse, 1 h pi; for tissue to tissue ratio at 1 h: male, NOD.Cg-Rag1^tm1Mom Il2rg^tm1Wjl/SzJ (NRG), iv, total radioactivity; for tissue uptake at 1 h: intravenous
Procedure: PET/CT imaging and biodistribution studies were conducted using male NOD.Cg-Rag1^tm1Mom Il2rg^tm1Wjl/SzJ (NRG) mice following previously published procedures. The studies were carried out in compliance with the guidelines established by the Canadian Council on Animal Care and approved by Animal Ethics Committee of the University of British Columbia (protocol number A20-0113, approved on 30 September 2022). The mice were anaesthetized and subcutaneously implanted with 5 × 10^6 PC-3 cells (100 µL; 1:1 PBS/Matrigel) behind the left shoulder. PET/CT imaging and biodistribution studies were performed once the tumors reached a diameter of 5–8 mm, typically after approximately 4 weeks of growth.
For ex vivo biodistribution studies, the mice were injected with the ^68Ga-labeled tracer (2–4 MBq) via a lateral caudal tail vein. For blocking [^68Ga]Ga-LW02060, the mice were co-injected with 100 μg of [D-Phe^6,Leu-NHEt^13,des-Met^14]Bombesin(6–14). For blocking [^68Ga]Ga-LW02080, the mice were co-injected with 100 μg of its nonradioactive standard Ga-LW02080. At 1 h pi, the mice were euthanized by CO2 inhalation. Blood and organs/tissues of interest were collected, weighed, and counted using a gamma counter.

T1 sequence (P30550 whole entry): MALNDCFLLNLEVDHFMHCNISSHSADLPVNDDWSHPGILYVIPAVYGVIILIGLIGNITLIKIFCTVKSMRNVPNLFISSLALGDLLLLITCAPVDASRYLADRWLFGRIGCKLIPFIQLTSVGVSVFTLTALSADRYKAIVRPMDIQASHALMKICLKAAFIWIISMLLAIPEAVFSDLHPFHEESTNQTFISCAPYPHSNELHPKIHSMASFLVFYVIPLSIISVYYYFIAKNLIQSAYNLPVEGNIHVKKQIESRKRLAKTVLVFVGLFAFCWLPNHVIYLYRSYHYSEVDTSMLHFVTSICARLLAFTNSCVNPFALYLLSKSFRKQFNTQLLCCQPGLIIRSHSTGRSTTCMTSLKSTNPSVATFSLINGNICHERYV

- intracellular calcium release (GRPR): 286 ± 9.44 RFU
SMILES: Nc1ncnc2c1ncn2[C@@H]1O[C@H](COP(=O)(O)OP(=O)(O)OP(=O)(O)O)[C@@H](O)[C@H]1O [ATP, adenosine triphosphate, reference compound]

- tissue to tissue ratio at 1 h ([1]; tumor/blood, blocked (100 µg blocking agent co-injected), read-out: Tumor/blood uptake ratio): 3.72 ± 0.74
- tissue to tissue ratio at 1 h ([1]; tumor/blood, n = 4, read-out: Tumor/blood uptake ratio): 29.1 ± 3.62
- tissue to tissue ratio at 1 h ([1]; tumor/bone, blocked (100 µg blocking agent co-injected), read-out: Tumor/bone uptake ratio): 22.3 ± 8.24
- tissue to tissue ratio at 1 h ([1]; tumor/bone, n = 4, read-out: Tumor/bone uptake ratio): 179 ± 46.9
- tissue to tissue ratio at 1 h ([1]; tumor/kidney, blocked (100 µg blocking agent co-injected), read-out: Tumor/kidney uptake ratio): 0.54 ± 0.03
- tissue to tissue ratio at 1 h ([1]; tumor/kidney, n = 4, read-out: Tumor/kidney uptake ratio): 4.86 ± 0.76
- tissue to tissue ratio at 1 h ([1]; tumor/muscle, blocked (100 µg blocking agent co-injected), read-out: Tumor/muscle uptake ratio): 17.7 ± 3.85
- tissue to tissue ratio at 1 h ([1]; tumor/muscle, n = 4, read-out: Tumor/muscle uptake ratio): 141 ± 19
- tissue to tissue ratio at 1 h ([1]; tumor/pancreas, blocked (100 µg blocking agent co-injected), read-out: Tumor/pancreas uptake ratio): 2.87 ± 0.84
- tissue to tissue ratio at 1 h ([1]; tumor/pancreas, n = 4, read-out: Tumor/pancreas uptake ratio): 5.52 ± 0.78
- tissue uptake at 1 h ([1]; PC-3 tumor, 100 ug, blocked (100 µg blocking agent co-injected), read-out: PC-3 tumor uptake): 6.11 ± 0.42 %ID/g
- tissue uptake at 1 h ([1]; PC-3 tumor, n = 4, read-out: PC-3 tumor uptake): 16.8 ± 2.7 %ID/g
- tissue uptake at 1 h ([1]; adrenal glands, 100 ug, blocked (100 µg blocking agent co-injected), read-out: Adrenal glands uptake): 0.67 ± 0.03 %ID/g
- tissue uptake at 1 h ([1]; adrenal glands, n = 4, read-out: Adrenal glands uptake): 0.66 ± 0.16 %ID/g
- tissue uptake at 1 h ([1]; blood, 100 ug, blocked (100 µg blocking agent co-injected), read-out: Blood uptake): 1.71 ± 0.44 %ID/g
- tissue uptake at 1 h ([1]; blood, n = 4, read-out: Blood uptake): 0.54 ± 0.03 %ID/g
- tissue uptake at 1 h ([1]; bone, 100 ug, blocked (100 µg blocking agent co-injected), read-out: Bone uptake): 0.29 ± 0.07 %ID/g
- tissue uptake at 1 h ([1]; bone, n = 4, read-out: Bone uptake): 0.1 ± 0.04 %ID/g
- tissue uptake at 1 h ([1]; brain, 100 ug, blocked (100 µg blocking agent co-injected), read-out: Brain uptake): 0.05 ± 0.01 %ID/g
- tissue uptake at 1 h ([1]; brain, n = 4, read-out: Brain uptake): 0.02 ± 0.01 %ID/g
- tissue uptake at 1 h ([1]; fat, 100 ug, blocked (100 µg blocking agent co-injected), read-out: Fat uptake): 0.27 ± 0.1 %ID/g
- tissue uptake at 1 h ([1]; fat, n = 4, read-out: Fat uptake): 0.05 ± 0.02 %ID/g
- tissue uptake at 1 h ([1]; heart, 100 ug, blocked (100 µg blocking agent co-injected), read-out: Heart uptake): 0.52 ± 0.14 %ID/g
- tissue uptake at 1 h ([1]; heart, n = 4, read-out: Heart uptake): 0.2 ± 0.05 %ID/g
- tissue uptake at 1 h ([1]; kidneys, 100 ug, blocked (100 µg blocking agent co-injected), read-out: Kidneys uptake): 11.3 ± 0.97 %ID/g
- tissue uptake at 1 h ([1]; kidneys, n = 4, read-out: Kidneys uptake): 3.58 ± 1.14 %ID/g
- tissue uptake at 1 h ([1]; large intestine, 100 ug, blocked (100 µg blocking agent co-injected), read-out: Large intestine uptake): 0.54 ± 0.13 %ID/g
- tissue uptake at 1 h ([1]; large intestine, n = 4, read-out: Large intestine uptake): 0.61 ± 0.1 %ID/g
- tissue uptake at 1 h ([1]; liver, 100 ug, blocked (100 µg blocking agent co-injected), read-out: Liver uptake): 1.11 ± 0.43 %ID/g
- tissue uptake at 1 h ([1]; liver, n = 4, read-out: Liver uptake): 0.37 ± 0.08 %ID/g
- tissue uptake at 1 h ([1]; lungs, 100 ug, blocked (100 µg blocking agent co-injected), read-out: Lungs uptake): 1.52 ± 0.39 %ID/g
- tissue uptake at 1 h ([1]; lungs, n = 4, read-out: Lungs uptake): 0.61 ± 0.15 %ID/g
- tissue uptake at 1 h ([1]; muscle, 100 ug, blocked (100 µg blocking agent co-injected), read-out: Muscle uptake): 0.35 ± 0.08 %ID/g
- tissue uptake at 1 h ([1]; muscle, n = 4, read-out: Muscle uptake): 0.12 ± 0.03 %ID/g
- tissue uptake at 1 h ([1]; pancreas, 100 ug, blocked (100 µg blocking agent co-injected), read-out: Pancreas uptake): 2.25 ± 0.59 %ID/g
- tissue uptake at 1 h ([1]; pancreas, n = 4, read-out: Pancreas uptake): 3.12 ± 0.89 %ID/g
- tissue uptake at 1 h ([1]; small intestine, 100 ug, blocked (100 µg blocking agent co-injected), read-out: Small intestine uptake): 0.72 ± 0.02 %ID/g
- tissue uptake at 1 h ([1]; small intestine, n = 4, read-out: Small intestine uptake): 0.96 ± 0.2 %ID/g
- tissue uptake at 1 h ([1]; spleen, 100 ug, blocked (100 µg blocking agent co-injected), read-out: Spleen uptake): 0.53 ± 0.15 %ID/g
- tissue uptake at 1 h ([1]; spleen, n = 4, read-out: Spleen uptake): 0.24 ± 0.1 %ID/g
- tissue uptake at 1 h ([1]; stomach, 100 ug, blocked (100 µg blocking agent co-injected), read-out: Stomach uptake): 0.38 ± 0.06 %ID/g
- tissue uptake at 1 h ([1]; stomach, n = 4, read-out: Stomach uptake): 0.77 ± 0.29 %ID/g
- tissue uptake at 1 h ([1]; testes, 100 ug, blocked (100 µg blocking agent co-injected), read-out: Testes uptake): 0.76 ± 0.29 %ID/g
- tissue uptake at 1 h ([1]; testes, n = 4, read-out: Testes uptake): 0.2 ± 0.06 %ID/g
SMILES: CC(C)C[C@H](NC(=O)[C@H](Cc1cnc[nH]1)N(C)C(=O)CNC(=O)[C@@H](NC(=O)[C@H](C)NC(=O)[C@H](Cc1c[nH]c2ccccc12)NC(=O)[C@H](CCC(N)=O)NC(=O)[C@@H](Cc1ccccc1)NC(=O)CN1CCC(NC(=O)CN2CCN(CC(=O)O)CCN(CC(=O)O)CCN(CC(=O)O)CC2)CC1)C(C)(C)C)C(=O)N1CC(F)(F)C[C@H]1C(N)=O [[^68Ga]Ga-LW02060, metal not drawn]

— publication PMC11859184, “Synthesis and Evaluation of ^68Ga- and ^177Lu-Labeled [diF-Pro^14]Bombesin(6−14) Analogs for Detection and Radioligand Therapy of Gastrin-Releasing Peptide Receptor-Expressing Cancer” (Pharmaceuticals, 2025)
